Test results from US20030158250A1, “Agents correcting gene expression regulatory error” (priority 2000, published 2003).

Assays:
Format in all cases: cell-based
COX2 mRNA = test: RT-PCR of COX2 mRNA in monocytes; conditions: human monocytes; for amplification of band ascribed to COX2 mRNA, stimulant alone: LPS or TPA alone, 4 hours, RT-PCR
Procedure: (§1) Four-hundred milliliters of blood was collected from a human normal individual donor. The collected blood was diluted 2-folds with PBS(−), overlaid on Ficoll-paque (manufactured by Pharmacia), and centrifuged at 500×g for 20 minutes. The peripheral blood mononuclear cells (PBMCs) in the intermediate layer was collected with a pipette, and washed with RPMI 1640 medium (manufactured by Bio Whittaker). The collected PBMCs was suspended in a storage solution of 90% FCS (manufactured by JRH Biosciences)/10% dimethyl sulfoxide, and stored in liquid nitrogen. During the experiment, these stored PBMCs were rapidly melted in water bath at 37° C., and washed with RPMI 1640 medium containing 10 μg/ml Dnase (manufactured by Calbiochem). Thereafter, the number of living cells was calculated by trypan blue staining method, and subjected to each experiment.
(§2) PBMCs were suspended in RPMI 1640 medium containing 5% human serum of blood type-AB, 0.1 mM nonessential amino acid, 1 mM sodium pyruvate, 2 mM L-glutamine (hereinabove manufactured by Bio Whittaker), 10 mM HEPES (manufactured by nakalai tesque), and 1% streptomycin-penicillin (manufactured by Gibco BRL) (hereinafter simply referred to as “5HRPMI medium”) so as to have a concentration of 4×10^6 cells/ml. Thereafter, the suspension was spread on a 6-well cell culture plate (manufactured by Falcon) in a volume of 3 ml/well, and the cells were incubated in a wet-type incubator at 37° C. and 5% CO2 for 1.5 hours. After 1.5 hours, the non-adherent cells were removed by suction, and each well was washed with RPMI 1640 medium, and 2 ml of the 5HRPMI medium was added to the wells, to give monocytes.
To the monocytes obtained above was added in each well 8 μl of an aqueous DGE solution, or 8 μl of water as a control, and the cells were incubated in a wet-type incubator at 37° C. and 5% CO2 for 5 hours. Thereafter, with addition of 2 μl of a 1 μg/ml aqueous LPS solution or 2 μl of a 25 μM TPA dimethyl sulfoxide solution to each well, or with addition of neither of these substances thereto, the cells were cultured for additional 4 hours. Thereafter, RNA was prepared from each cell in accordance with the description of the kit using RNeasy Mini Kit (manufactured by QIAGEN, 74104). The group with addition of water alone or the aqueous DGE solution alone to the cells was set as a negative control, and the group with addition of water and the aqueous LPS solution or the aqueous TPA solution to the cells was set as a positive control. […]

interleukin-1β (IL-1β) = test: RT-PCR expression level of IL-1β gene in monocytes; conditions: human monocytes, 30 PCR cycles
Procedure: as §1, §2
(§3) To the monocytes obtained above was added in each well 8 μl of an aqueous DGE solution, or 8 μl of water as a control, and the cells were incubated in a wet-type incubator at 37° C. and 5% CO2 for 5 hours. Thereafter, with addition of 2 μl of a 1 μg/ml aqueous LPS solution or 2 μl of a 25 μM TPA dimethyl sulfoxide solution to each well, or with addition of neither of these substances thereto, the cells were cultured for additional 4 hours. Thereafter, RNA was prepared from each cell in accordance with the description of the kit using RNeasy Mini Kit (manufactured by QIAGEN, 74104). The group with addition of water alone or the aqueous DGE solution alone to the cells was set as a negative control, and the group with addition of water and the aqueous LPS solution or the aqueous TPA solution to the cells was set as a positive control.
(§4) A liquid mixture having a total volume of 60 μl of 0.5 μg of RNA prepared above, 10 mM Tris-HCl (pH 8.3), 50 mM KCl, 5 mM MgCl2, 1 mM dNTP mixtures, 150 pmol of Random 6 mers, 60 U Ribonuclease Inhibitor (manufactured by Takara Shuzo Co., Ltd., 2310A), and 15 U Reverse Transcriptase XL (AMV) (manufactured by Takara Shuzo Co., Ltd., 2620A) were incubated at 30° C. for 10 minutes and thereafter at 42° C. for 1 hour using a thermal cycler (GeneAmp PCR System 9600, manufactured by Applied Biosystems), and the mixture was heated at 99° C. for 5 minutes to deactivate the enzyme, to give cDNA.
(§5) Oligonucleotide primers for reaction of PCR were designed based on mRNA nucleotide sequence of each gene listed in the following tables, and synthesized in the same manner as above. In Tables 4 and 5, each gene evaluated in this Example, GenBank Accession NO, the name of oligonucleotide primers and SEQ ID NOs of the primers in Sequence Listing were listed. […]

[1] = test system: tumor necrosis factor α (TNFα); test: RT-PCR expression level of TNFα gene in monocytes; conditions: human monocytes, 30 PCR cycles
Procedure: as §1, §2, §3, §4, §5

[2] = test system: macrophage inflammatory protein-1-β (MIP1β); test: RT-PCR expression level of MIP1β gene in monocytes; conditions: human monocytes, 30 PCR cycles
Procedure: as §1, §2, §3, §4, §5

[3] = test system: macrophage-derived chemokine (MDC); test: RT-PCR expression level of MDC gene in monocytes; conditions: human monocytes, 30 PCR cycles
Procedure: as §1, §2, §3, §4, §5

[4] = test system: macrophage inflammatory protein-2-β (MIP2β); test: RT-PCR expression level of MIP2β gene in monocytes; conditions: human monocytes, 30 PCR cycles
Procedure: as §1, §2, §3, §4, §5

[5] = test system: growth regulated protein-1 (Gro1); test: RT-PCR expression level of Gro1 gene in monocytes; conditions: human monocytes, 30 PCR cycles
Procedure: as §1, §2, §3, §4, §5

[6] = test system: migration inhibitory factor-related protein-8 (MRP8); test: RT-PCR expression level of MRP8 gene in monocytes; conditions: human monocytes, 30 PCR cycles
Procedure: as §1, §2, §3, §4, §5

transketolase (TK) = test: RT-PCR expression level of TK gene in monocytes; conditions: human monocytes, 30 PCR cycles
Procedure: as §1, §2, §3, §4, §5

[7] = test system: properdin P factor, complement (PFC); test: RT-PCR expression level of PFC gene in monocytes; conditions: human monocytes, 35 PCR cycles
Procedure: as §1, §2, §3, §4, §5

[8] = test system: regulator of G-protein signaling-2 (RGS2); test: RT-PCR expression level of RGS2 gene in monocytes; conditions: human monocytes, 35 PCR cycles
Procedure: as §1, §2, §3, §4, §5

[9] = L + D: DGE and LPS, LPS alone +++
[10] = T + D: DGE and TPA, TPA alone ++
[11] = substance added alone, Con. (water) +
[12] = L + D: DGE and LPS, LPS alone ++
[13] = T + D: DGE and TPA, TPA alone +
[14] = substance added alone, Con. (water) +/−
[15] = T + D: DGE and TPA, TPA alone −
[16] = substance added alone, Con. (water) −
[17] = L + D: DGE and LPS, LPS alone +/−
[18] = T + D: DGE and TPA, TPA alone +/−
[19] = L + D: DGE and LPS, LPS alone −

O=C1C=CC(CO)OC1O [DGE, L-glycero-1,5-epoxy-1αβ,6-dihydroxy-cis-hex-3-en-2-one]
induction of COX2 mRNA by LPS, effect of DGE (COX2 mRNA; DGE 5 hours, then LPS 4 hours, RT-PCR band): inhibited | induction of COX2 mRNA by TPA, effect of DGE (COX2 mRNA; DGE 5 hours, then TPA 4 hours, RT-PCR band): inhibited | expression level of IL-1β gene (interleukin-1β (IL-1β); [9]): + | expression level of IL-1β gene (interleukin-1β (IL-1β); [10]): + | expression level of IL-1β gene (interleukin-1β (IL-1β); [11]): + | expression level of TNFα gene [1, 12]: +/− | expression level of TNFα gene [1, 13]: +/− | expression level of TNFα gene [1, 14]: − | expression level of MIP1β gene [2, 9]: +/− | expression level of MIP1β gene [2, 10]: +/− | expression level of MIP1β gene [2, 11]: +/− | expression level of MDC gene ([3]; L + D: DGE and LPS, LPS alone +): − | expression level of MDC gene [3, 15]: − | expression level of MDC gene [3, 16]: − | expression level of MIP2β gene [4, 12]: + | expression level of MIP2β gene [4, 10]: + | expression level of MIP2β gene [4, 11]: + | expression level of Gro1 gene [5, 9]: + | expression level of Gro1 gene [5, 10]: + | expression level of Gro1 gene [5, 11]: + | expression level of MRP8 gene [6, 17]: + | expression level of MRP8 gene [6, 18]: + | expression level of MRP8 gene [6, 11]: + | expression level of TK gene (transketolase (TK); [17]): + | expression level of TK gene (transketolase (TK); [15]): + | expression level of TK gene (transketolase (TK); [14]): +/− | expression level of PFC gene [7, 19]: + | expression level of PFC gene [7, 13]: + | expression level of PFC gene [7, 11]: + | expression level of RGS2 gene [8, 19]: +/− | expression level of RGS2 gene [8, 18]: +/− | expression level of RGS2 gene [8, 14]: +/−

lipopolysaccharide [LPS, reference compound]
amplification of band ascribed to COX2 mRNA, stimulant alone (COX2 mRNA): induction | expression level of IL-1β gene (interleukin-1β (IL-1β); [11]): +++ | expression level of TNFα gene [1, 14]: ++ | expression level of MIP1β gene [2, 11]: +++ | expression level of MDC gene [3, 16]: + | expression level of MIP2β gene [4, 11]: ++ | expression level of Gro1 gene [5, 11]: +++ | expression level of MRP8 gene [6, 11]: +/− | expression level of TK gene (transketolase (TK); [14]): +/− | expression level of PFC gene [7, 11]: − | expression level of RGS2 gene [8, 14]: −

12-o-tetradecanoylphorbol 13-acetate [TPA, reference compound]
amplification of band ascribed to COX2 mRNA, stimulant alone (COX2 mRNA): induction | expression level of IL-1β gene (interleukin-1β (IL-1β); [11]): ++ | expression level of TNFα gene [1, 14]: + | expression level of MIP1β gene [2, 11]: ++ | expression level of MDC gene [3, 16]: − | expression level of MIP2β gene [4, 11]: ++ | expression level of Gro1 gene [5, 11]: ++ | expression level of MRP8 gene [6, 11]: +/− | expression level of TK gene (transketolase (TK); [14]): − | expression level of PFC gene [7, 11]: + | expression level of RGS2 gene [8, 14]: +/−
